Reference: patent US12576107B2, “Methods of treating chronic inflammatory diseases” (METIMEDI PHARMACEUTICALS CO., LTD., priority 2018, dated 2026)

How the values were obtained:
[1] = system: hypoxia inducible factor-1α (HIF-1α); test: Liver fibrosis in vitro experiment, Western blot in LX-2 cells; assay type: cell-based; conditions: 2.5 mM, LX-2 cells (human hepatic stellate cell)
Protocol: Human Hepatic Stellate cell line, LX-2, was purchased from Sigma-Aldrich (St Louis, MO, USA). The LX-2 cells were maintained in DMEM containing 2% fetal bovine serum (Life Technologies, Gaithersburg, MD, USA), 100 IU/ml penicillin, and 100 μg/ml streptomycin (Welgene, Daegu, South Korea).
(§1) To prepare whole cell lysate, cells were lysed with lysis buffer (1% NP-40, 0.25% sodium deoxycholate, 150 mM NaCl, 1 mM EDTA, 1% Triton X-100, 50 mM Tris-HCl (pH 7.4), 10% Glycerol) with protease inhibitor cocktail (Roche, Basel, Switzerland) and phosphatase inhibitors (NA3VO4 1 mM, NaF 100 mM). Then, protein concentration was measured using the Bicinchoninic acid (BCA) assay kit (Thermo Scientific, Waltham, MA). Whole cell or nuclear lysates were transferred onto polyvinylidene fluoride membranes (Merck Millipore, Billerica, MA, USA). After blocking in 5% non-fat milk (Bio-Rad, Hercules, CA, USA) for 1 h, the membranes were incubated overnight at 4° C. with primary antibody diluted in TBST containing 100 mM Tris-HCl (pH 7.5), 1.5 M NaCl, and 0.5% Tween-20 obtained from Sigma-Aldrich, to which 5% BSA and 0.1% sodium azide (Sigma-Aldrich) had been added. Specific primary antibodies to HIF-1α (1:1000), HIF-2α (1:1000), LDH-A (1:1000), LDH-B (1:1000), TLR-4 (1:1000), NF-κB (1:1000), VEGF (1:1000), α-tubulin (1:1000), Actin (1:1000), and GAPDH (1:5000). […]

hypoxia-mediated factors = test: Liver CID in vitro experiment, Western blot in HepG2 cells; assay type: cell-based, Human; conditions: 2.5 mM, HepG2 cells (liver epithelium)
Protocol: (§2) Human Hepatocellular carcinoma cell line, HepG2, was purchased from American Type Culture Collection (Manassas, VA, USA). The HepG2 cells were maintained in RPMI 1640 containing 10% fetal bovine serum (Life Technologies, Gaithersburg, MD, USA), 100 IU/ml penicillin, and 100 μg/ml streptomycin (Welgene, Daegu, South Korea).
as §1

toll like receptor 4 = test: Immunocytochemistry of toll like receptor 4 in ARPE-19 cells; assay type: cell-based, Human; conditions: 2.5 mM, hypoxia
Protocol: as §2, with “retinal pigment epithelium” for “Hepatocellular carcinoma”, “ARPE-19,” for “HepG2,”, “ARPE-19” for “HepG2”, “RPMI1640” for “RPMI 1640”
ARPE-19 and SK-N-SH cells were fixed on bio-coated coverslips (BD bioscience, San Jose, CA, USA) by 4% PFA for 20 min and then incubated with the primary antibodies for 15 h. The primary antibodies were as follows: HIF-1a (1:300, BD Biosciences, San Jose, CA, USA); LDH-A (1:300, Santa Cruz Biotechnology, Santa Cruz, CA, USA); LDH-B (1:300, Santa Cruz Biotechnology, Santa Cruz, CA, USA); NF-κB (1:300, Santa Cruz Biotechnology, Santa Cruz, CA, USA); TLR-4 (1:300, Santa Cruz Biotechnology, Santa Cruz, CA, USA); apoE (1:200, Santa Cruz Biotechnology, Santa Cruz, CA, USA). After PBS wash, the cells were incubated with anti-mouse secondary biotinylated antibody (1:2000, Vector Laboratorie, Burlingame, CA, USA) and visualized with streptavidin conjugated to Fluorescein (Vector Laboratorie, Burlingame, CA, USA). […] Confocal fluorescence images were obtained with confocal laser scanning microscopy (LSCM, Nikon A1+, Tokyo, Japan) under a 60× oil immersion lens.

NF-κb = test: Western blot of NF-κb in the tissue of retinal pigment epithelium; assay type: in vivo, mice; conditions: 2.5 mM (so in the source)
Protocol: as §1, with “(1:5000). The next day, the membranes were washed with TBST and incubated for 2 h with anti-rabbit secondary antibody (1:10000). Immunoblots were developed using a western blot detection reagent (Abclone, Seoul, Korea) and exposed to x-ray film (Agfa, Leverkusen, Germany) according to the manufacturer's protocol.” for “(1:5000).”

With `CC(O)C(=O)[O-].CC(O)C(=O)[O-].[Ca+2]` (stereo not shown) [calcium lactate] the “hypoxia inducible factor-1α (HIF-1α), Western blot” value [1] was “decreased”, the “hypoxia-mediated factors, Western blot” value (hypoxia-mediated factors) was “changed” and the “inflammatory factor (toll like receptor 4), immunocytochemistry” value (toll like receptor 4) was “decreased”. For the same compound, the “inflammatory factor (NF-κb), Western blot” value (NF-κb) was “decreased”.
